# Laboratory results taken from patent US20240197634A1, “PHARMACEUTICAL COMPOSITION FOR PREVENTING OR TREATING VIRUS INFECTIONS, COMPRISING POLYMER NANODISCS” (priority 2021, published 2024).
# Test system: influenza virus
# Assay type: cell-based
substance,measurement,value
Heparin,viral activity after 1/100 dilution (virucidal activity),recovery in viral activity
